Measurements reported in patent US11407765B2, “Tetracyclic heteroaryl compounds” (AstraZeneca AB, priority 2018, dated 2022).
Read-outs that look alike come from different tables or passages of the source.

How the values were obtained:
KRasG12C [1] = molecular target: T1, KRasG12C (Homo sapiens, UniProt P01116, G12C); test: KRasG12C functional assay (HTRF, SOS-mediated nucleotide exchange / Raf RBD binding); type: biochemical; conditions: 4 hrs incubation with GDP loaded biotinylated KRasG12C, single experiment or average of two or more
T1 construct: biotin (biotinylated); made in house
Experimental: KRasG12C Functional Assay
All enzyme and substrate solutions were prepared in assay buffer containing 20 mM HEPES (pH 7.5), 5 mM MgCl2, 150 mM NaCl, and 0.01% Tween 20. […] In a separate mix 20 nM GST-Raf Ras binding domain (GST-Raf RBD, purified in house) and 4 μg/ml anti-GST XL665 antibody (Cisbio) was prepared in assay buffer containing 50 mM Potassium Fluoride and 0.05 mg/ml BSA and equilibrated for 4 hours before adding 0.6 μM Guanosine 5′-[γ-thio]triphosphate (GTPγS, Sigma) and 0.08 μM SOS (purified in house). 5 μl of the GST-RAF RBD mix was then dispensed into each well of the assay plate. […] This is detected simultaneously via the specific binding interaction between active GTPγS KRas^G12C with GST-Raf RBD which brings the europium and XL665 into close proximity enabling an increased FRET signal to be detected on a Pherastar (BMG) plate reader equipped with the HTRF filter module. […] IC50 values were calculated from normalised dose-response response FRET data curve fitted in Genedata screener (Basel, Switzerland).

KRasG12C [2] = molecular target: T1, KRasG12C; test: KRasG12C mass spectrometry adducting assay; type: binding; conditions: 10 μM test compound, 4 μM GDP loaded KRasG12C, 4 hours
Experimental: KRasG12C Mass Spectrometry Adducting Assay
Enzyme solutions were prepared in assay buffer containing 20 mM HEPES (pH 7.5), 5 mM MgCl2, and 150 mM NaCl. […] The plate was sealed before reading on a Xevo G2 QTOF (Waters) and Acquity LC system (Waters). 10 μl of sample was injected onto a Xbridge BEH300; C4; 3.5 um; 2.1×50 mm column (Waters) running a 3 minute gradient. Blank samples were run in between each test sample.
Data was analysed in Mass Lynx software (Waters), the Total ion count (TIC) trace was used and the eluted protein peak data combined. Using the combined spectrum the data was deconvoluted using MaxEnt1 method. The peak area for apo-protein KRas^G12C (APO) and KRAS+relative cmpd mass (adduct) were measured, and a percentage adduct was calculated using the following calculation: Percent adduct=100*(area of adduct peak/(sum of APO+adduct peaks)

[3] = KRasG12C functional assay IC50 value
[4] = read-out: KRasG12C functional assay IC50 value

T1 sequence (P01116 1-188 isoform P01116-2 G12C): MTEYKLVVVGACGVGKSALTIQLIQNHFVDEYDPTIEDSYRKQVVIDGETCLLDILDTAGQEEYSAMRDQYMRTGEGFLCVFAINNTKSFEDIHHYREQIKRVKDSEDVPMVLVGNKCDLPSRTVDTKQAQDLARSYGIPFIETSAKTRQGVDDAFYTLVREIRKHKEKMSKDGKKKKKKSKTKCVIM

SMILES	IC50 (KRasG12C [1]; [4])	KRasG12C M. S. Binding Mean adduct % (KRasG12C [2])	IC50 (KRasG12C [1]; [3])
C=CC(=O)N1C[C@H]2CCOc3c(Cl)c(-c4c(O)cccc4F)c(F)c4ncnc(c34)N2C[C@H]1C (single isomer, unassigned) [Example 40]			2540 nM
C=CC(=O)N1CCN2c3ncnc4c(F)c(-c5c(C)ccc6nc[nH]c(=O)c56)c(Cl)c(c34)OC[C@@H]2C1 (single isomer, unassigned) [Example 6]	98 nM	95%	
Cc1ccc2[nH]ncc2c1-c1c(Cl)c2c3c(ncnc3c1F)N1CCN(C(=O)/C=C/CN(C)C)C[C@H]1CO2 (single isomer, unassigned) [Example 30]	170 nM	94%	
C=CC(=O)N1CCN2c3ncnc4c(F)c(-c5c(C)ccc6cc[nH]c(=O)c56)c(Cl)c(c34)OC[C@@H]2C1 (single isomer, unassigned) [Example 17]	373 nM	30%	
C=CC(=O)N1CCN2c3ncnc4c(F)c(-c5c(C)ccc6[nH]nnc56)c(Cl)c(c34)OC[C@@H]2C1 (single isomer, unassigned) [Example 19]	24 nM	94%	
Cc1ccc2[nH]ncc2c1-c1c(Cl)c2c3c(ncnc3c1F)N1CCN(C(=O)/C=C/CN(C)C)C[C@H]1CO2 (single isomer, unassigned) [Example 31]	6830 nM		
C=CC(=O)N1CCN2c3ncnc4c(F)c(-c5c(F)ccc6c5ncn6C)c(Cl)c(c34)OC[C@@H]2C1 (single isomer, unassigned) [Example 24]	97 nM	99%	
C=CC(=O)N1CCN2c3ncnc4c(F)c(-c5c(F)ccc6[nH]cnc56)c(Cl)c(c34)OC[C@@H]2C1 (single isomer, unassigned) [Example 21]	1310 nM		
C=CC(=O)N1CCN2c3ncnc4c(F)c(-c5c(C)ccc6nc[nH]c(=O)c56)c(Cl)c(c34)OC[C@@H]2C1 (single isomer, unassigned) [Example 7]	7630 nM		
CN(C)C/C=C/C(=O)N1CCN2c3ncnc4c(F)c(-c5c(O)cccc5F)c(Cl)c(c34)OC[C@@H]2C1 (single isomer, unassigned) [Example 15]	19700 nM		
C=CC(=O)N1CCN2c3ncnc4c(F)c(-c5c(F)ccc6c5ncn6C)c(Cl)c(c34)OC[C@@H]2C1 (single isomer, unassigned) [Example 25]	13900 nM		
C=CC(=O)N1C[C@H]2CCOc3c(Cl)c(-c4c(O)cccc4F)c(F)c4ncnc(c34)N2C[C@@H]1C (single isomer, unassigned) [Example 33]			229 nM
C=CC(=O)N1CCN2c3ncnc4c(F)c(-c5c(F)ccc6[nH]ncc56)c(Cl)c(c34)OC[C@@H]2C1 (single isomer, unassigned) [Example 23]	8960 nM		
C=CC(=O)N1C[C@@H]2CCOc3c(Cl)c(-c4c(O)cccc4F)c(F)c4ncnc(c34)N2C[C@H]1C (single isomer, unassigned) [Example 38]			3650 nM
C=CC(=O)N1CCN2c3ncnc4c(F)c(-c5c(F)ccc6[nH]nnc56)c(Cl)c(c34)OC[C@@H]2C1 (single isomer, unassigned) [Example 27]	12000 nM		
C=CC(=O)N1CCN2c3ncnc4c(F)c(-c5c(C)cccc5O)c(Cl)c(c34)OC[C@@H]2C1 (single isomer, unassigned) [Example 13]	9700 nM		
C=CC(=O)N1C[C@H]2CCOc3c(Cl)c(-c4c(O)cccc4F)c(F)c4ncnc(c34)N2C[C@H]1C (single isomer, unassigned) [Example 41]			674 nM
C=CC(=O)N1C[C@H]2CCOc3c(Cl)c(-c4c(O)cccc4F)c(F)c4ncnc(c34)N2C[C@@H]1C (single isomer, unassigned) [Example 32]			3130 nM
C=CC(=O)N1CCN2c3ncnc4c(F)c(-c5c(F)ccc6cc[nH]c(=O)c56)c(Cl)c(c34)OC[C@@H]2C1 (single isomer, unassigned) [Example 29]	2860 nM		
C=CC(=O)N1C[C@@H]2CCOc3c(Cl)c(-c4c(O)cccc4F)c(F)c4ncnc(c34)N2C[C@@H]1C (single isomer, unassigned) [Example 43]			2900 nM

The next lines start with results.

IC50 (KRasG12C [1]; [4])	KRasG12C M. S. Binding Mean adduct % (KRasG12C [2])	SMILES	IC50 (KRasG12C [1]; [3])
1750 nM		Cc1ccc2[nH]cnc2c1-c1c(Cl)c2c3c(ncnc3c1F)N1C[C@@H](C)N(C(=O)/C=C/CN(C)C)C[C@H]1CO2 (single isomer, unassigned) [Example 51]	
30000 nM		C=CC(=O)N1C[C@H]2COc3c(Cl)c(-c4c(C)ccc5cc[nH]c(=O)c45)c(F)c4ncnc(c34)N2C[C@H]1C (single isomer, unassigned) [Example 49]	
46 nM		C=CC(=O)N1C[C@H]2COc3c(Cl)c(-c4c(C)ccc5cc[nH]c(=O)c45)c(F)c4ncnc(c34)N2C[C@H]1C (single isomer, unassigned) [Example 48]	
11200 nM		C=CC(=O)N1C[C@H]2COc3c(Cl)c(-c4c(C)ccc5[nH]cnc45)c(F)c4ncnc(c34)N2C[C@H]1C (single isomer, unassigned) [Example 47]	
8510 nM		C=CC(=O)N1CCN2c3ncnc4c(F)c(-c5c(C)ccc6cc[nH]c(=O)c56)c(Cl)c(c34)OCCC2C1 (single isomer, unassigned) [Example 35, 8-[3-Chloro-1-fluoro-8-(prop-2-enoyl)-6,6a,7,8,9,10-hexahydro-5H-pyrazino[1′,2′:5,6][1,5]oxazocino[4,3,2-de]quinazolin-2-yl]-7-methylisoquinolin-1(2H)-one]	
89 nM		C=CC(=O)N1CCN2c3ncnc4c(Cl)c(-c5c(O)cccc5F)c(F)c(c34)OC[C@@H]2C1 (single isomer, unassigned) [Example 45]	
180 nM		C=CC(=O)N1CCN2c3ncnc4c(F)c(-c5c(C)ccc6cc[nH]c(=O)c56)c(Cl)c(c34)OCCC2C1 (single isomer, unassigned) [Example 37, 8-[3-Chloro-1-fluoro-8-(prop-2-enoyl)-6,6a,7,8,9,10-hexahydro-5H-pyrazino[1′,2′:5,6][1,5]oxazocino[4,3,2-de]quinazolin-2-yl]-7-methylisoquinolin-1(2H)-one]	
2 nM		C=CC(=O)N1CCN2c3ncnc4c(F)c(-c5c(C)ccc6cc[nH]c(=O)c56)c(Cl)c(c34)OCCC2C1 (single isomer, unassigned) [Example 36, 8-[3-Chloro-1-fluoro-8-(prop-2-enoyl)-6,6a,7,8,9,10-hexahydro-5H-pyrazino[1′,2′:5,6][1,5]oxazocino[4,3,2-de]quinazolin-2-yl]-7-methylisoquinolin-1(2H)-one]	
59 nM		C=CC(=O)N1C[C@H]2COc3c(Cl)c(-c4c(C)ccc5[nH]cnc45)c(F)c4ncnc(c34)N2C[C@H]1C (single isomer, unassigned) [Example 46]	
140 nM		Cc1ccc2[nH]cnc2c1-c1c(Cl)c2c3c(ncnc3c1F)N1C[C@@H](C)N(C(=O)/C=C/CN(C)C)C[C@H]1CO2 (single isomer, unassigned) [Example 50]	
62 nM		C=CC(=O)N1CCN2c3ncnc4c(Cl)c(-c5c(O)cccc5F)c(F)c(c34)OC[C@@H]2C1 (single isomer, unassigned) [Example 44]	
1210 nM		C=CC(=O)N1CCN2c3ncnc4c(F)c(-c5c(C)ccc6cc[nH]c(=O)c56)c(Cl)c(c34)OCCC2C1 (single isomer, unassigned) [Example 34, 8-[3-Chloro-1-fluoro-8-(prop-2-enoyl)-6,6a,7,8,9,10-hexahydro-5H-pyrazino[1′,2′:5,6][1,5]oxazocino[4,3,2-de]quinazolin-2-yl]-7-methylisoquinolin-1(2H)-one]	
